{
  "source": "the NIST ThermoML archive (doi:10.1016/j.jct.2007.03.009)",
  "conditions": "for mass density: 298 K, 101.33 kPa, Liquid, masses and of the volumes of pellets.; for Normal melting temperature / vapor or sublimation pressure: Crystal; for Normal melting temperature: DTA; for vapor or sublimation pressure: Knudsen effusion",
  "note": "Where “and” joins values, the source holds several entries; their conditions need not be identical. Identical values can stand only once. Numbers after ± are expanded uncertainties.",
  "data": [
    {"smiles": "O=C1c2ccccc2C(=O)N1CCBr", "note": "[N-(2-bromoethyl)phthalimide]", "values": [
      {"measurement": "mass density", "value": "1323 ± 26", "unit": "kg/m3"},
      {"measurement": "Normal melting temperature", "value": "81.5 ± 0.5", "unit": "°C"}
    ]},
    {"smiles": "O=C1c2ccccc2C(=O)N1CCCl", "note": "[N-(2-chloroethyl)phthalimide]", "values": [
      {"measurement": "mass density", "value": "1218 ± 24", "unit": "kg/m3"},
      {"measurement": "Normal melting temperature", "value": "82.8 ± 0.5", "unit": "°C"}
    ]},
    {"smiles": "O=C1c2ccccc2C(=O)N1CCl", "note": "[N-(chloromethyl)phthalimide]", "values": [
      {"measurement": "mass density", "value": "1081 ± 22", "unit": "kg/m3"},
      {"measurement": "vapor or sublimation pressure", "setting": "323.27 K", "value": "0.000111 ± 2e-05 kPa and 0.000106 ± 2e-05 kPa"},
      {"measurement": "vapor or sublimation pressure", "setting": "325.24 K", "value": "0.000138 ± 2.1e-05 kPa and 0.000137 ± 2.1e-05 kPa and 0.000132 ± 2.1e-05 kPa"},
      {"measurement": "vapor or sublimation pressure", "setting": "327.12 K", "value": "0.000171 ± 2.1e-05 kPa and 0.000168 ± 2.1e-05 kPa and 0.000169 ± 2.1e-05 kPa"},
      {"measurement": "vapor or sublimation pressure", "setting": "329.26 K", "value": "0.000218 ± 2.1e-05 kPa and 0.000207 ± 2.1e-05 kPa and 0.00022 ± 2.1e-05 kPa"},
      {"measurement": "vapor or sublimation pressure", "setting": "331.23 K", "value": "0.000282 ± 2.2e-05 kPa and 0.00027 ± 2.2e-05 kPa and 0.000262 ± 2.2e-05 kPa"},
      {"measurement": "vapor or sublimation pressure", "setting": "333.11 K", "value": "0.00033 ± 2.3e-05 kPa and 0.000328 ± 2.3e-05 kPa and 0.000329 ± 2.3e-05 kPa"},
      {"measurement": "vapor or sublimation pressure", "setting": "335.12 K", "value": "0.00042 ± 2.5e-05 kPa and 0.000413 ± 2.5e-05 kPa and 0.000402 ± 2.5e-05 kPa"},
      {"measurement": "vapor or sublimation pressure", "setting": "337.26 K", "value": "0.000534 ± 2.8e-05 kPa and 0.000519 ± 2.7e-05 kPa and 0.000507 ± 2.7e-05 kPa"},
      {"measurement": "vapor or sublimation pressure", "setting": "339.12 K", "value": "0.000648 ± 3e-05 kPa and 0.000644 ± 3e-05 kPa and 0.000618 ± 3e-05 kPa"},
      {"measurement": "vapor or sublimation pressure", "setting": "341.22 K", "value": "0.000835 ± 3.6e-05 kPa and 0.000801 ± 3.5e-05 kPa and 0.00077 ± 3.4e-05 kPa"},
      {"measurement": "vapor or sublimation pressure", "setting": "343.25 K", "value": "0.001007 ± 4.1e-05 kPa and 0.000989 ± 4e-05 kPa and 0.000946 ± 3.9e-05 kPa"},
      {"measurement": "Normal melting temperature", "value": "133.5 ± 0.5", "unit": "°C"}
    ]},
    {"smiles": "O=C1c2ccccc2C(=O)N1CCCBr", "note": "[N-(3-bromopropyl)phthalimide]", "values": [
      {"measurement": "mass density", "value": "1051 ± 21", "unit": "kg/m3"},
      {"measurement": "Normal melting temperature", "value": "72.8 ± 0.5", "unit": "°C"}
    ]}
  ]
}
